Measured values taken from ChEMBL document CHEMBL1128186, “Steroidal spiro-gamma-lactones that inhibit 17 beta-hydroxysteroid dehydrogenase activity in human placental microsomes” (J Med Chem, 1995).

Assay: The compound was tested at a concentration of 1 uM for inhibitory activity against 17 beta-hydroxysteroid dehydrogenase from human placental microsomes

inhibition | Structure (SMILES)
3% | C[C@]12CCC(=O)C=C1C(=O)CC1C2CC[C@@]2(C)C1CC[C@@]21CCC(=O)O1 (some centres undefined)
6% | C[C@]12C=CC(=O)C=C1CCC1C2CC[C@@]2(C)C1CC[C@@]21CCC(=O)O1 (some centres undefined)
3% | C[C@]12CCC(=O)C=C1CC[C@@H]1[C@@H]2CC[C@@]2(C)[C@H]1CC[C@@]21CCC(=O)O1

Continued, molecule first:

Structure (SMILES) | inhibition
COc1ccc2c(c1)CC[C@@H]1[C@@H]2CC[C@@]2(C)[C@H]1CC[C@@]21CCC(=O)O1 | 55%
C[C@]12CCC(=O)CC1CC[C@@H]1[C@@H]2CC[C@@]2(C)[C@H]1CC[C@@]21CCC(=O)O1 (some centres undefined) | 25%
C[C@]12CC[C@@H]3c4ccc(O)cc4CC[C@H]3[C@@H]1CC[C@@]21CCC(=O)O1 | 81%
C[C@]12CC[C@@H]3c4ccc(OCc5ccccc5)cc4CC[C@H]3[C@@H]1CC[C@@]21CCC(=O)O1 | 11%
C[C@]12CC[C@@]3(CCC(=O)O3)CC1CC[C@@H]1[C@@H]2CC[C@@]2(C)[C@H]1CC[C@@]21CCC(=O)O1 (some centres undefined) | 11%
C[C@]12CCC(=O)CC1C(=O)C[C@@H]1[C@@H]2CC[C@@]2(C)[C@H]1CC[C@@]21CCC(=O)O1 (some centres undefined) | 28%
